From PubChem BioAssay AID652043 (Broad Institute, 2013)
Active and inactive are the calls of the source.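 The calls were made as follows: active = fitted curve drops below -35% activity change at a concentration within twice the highest valid tested dose; inactive = activity opposite to the expected direction, or the rest.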

Assays:
[1] = test system: HEK293 TNFa-induced NF-kB eGFP reporter, flow cytometry, 16 h; assay: canonical NF-kB pathway blockers in HEK293 – cell-based, flow cytometry, eGFP/dsRED, dry powder, selectivity assay for LMP1 NF-kB inhibitor project, dose response (AID 652043)
[2] = as above; settings: HEK293 TNFa-induced NF-kB eGFP reporter, flow cytometry, 16 h

| Compound | AC35 [1] | activity change, negative = inhibition ([2]; at 19.5 µM (top of the series)) | also measured |
| --- | --- | --- | --- |
| Nc1ccn([C@@H]2O[C@H](CO)[C@@H](O)C2O)c(=O)n1 (some centres not stated) | 7.24 µM | – | – |
| CN(C)c1ccc2c(c1)[C@@H]1C[C@@H](CC(=O)NCc3ccc(Oc4ccccc4)cc3)O[C@@H](CO)[C@@H]1O2 | – | -5.55% (inactive) | – |
| O=C(C[C@@H]1C[C@H]2c3cc(NS(=O)(=O)c4ccc(F)cc4)ccc3O[C@H]2[C@H](CO)O1)NCc1ccc(Oc2ccccc2)cc1 | – | -4.18% (inactive) | – |
| COCCNC(=O)C[C@H]1CC[C@@H]2[C@H](COc3ccc(NC(=O)c4cc(C)on4)cc3C(=O)N2C)O1 | – | -8.48% (inactive) | – |
| CN(C)c1ccc2c(c1)[C@@H]1C[C@@H](CC(=O)NCc3ccc4c(c3)OCO4)O[C@@H](CO)[C@@H]1O2 | – | -10.4% (inactive) | – |
| O=C(C[C@@H]1C[C@H]2c3cc(NC(=O)Nc4ccccc4F)ccc3O[C@H]2[C@H](CO)O1)NCc1ccc(Oc2ccccc2)cc1 | 16.2 µM | – | – |
| CN(C)c1ccc2c(c1)[C@@H]1C[C@@H](CC(=O)NCc3ccncc3)O[C@@H](CO)[C@@H]1O2 | – | 0.09% (inactive) | – |
| CN1C(=O)c2cc(NS(C)(=O)=O)ccc2OC[C@@H]2O[C@@H](CC(=O)NCc3ccc(-c4ccccc4)cc3)CC[C@H]21 | – | -0.9% (inactive) | – |
| Cc1cc(C(=O)Nc2ccc3c(c2)C(=O)N(C)[C@@H]2CC[C@H](CC(=O)NCc4ccc(-c5ccccc5)cc4)O[C@H]2CO3)no1 | – | – | activity change, negative = inhibition ([2]; at 18 µM (top of the series)): -3.35% (inactive) |
| Cc1cc(C(=O)Nc2ccc3c(c2)C(=O)N(C)[C@@H]2CC[C@H](CC(=O)N[C@H](C)c4ccccc4)O[C@H]2CO3)no1 | 18.1 µM | – | – |
| CN1C(=O)c2cc(NC(=O)Nc3ccccc3F)ccc2OC[C@@H]2O[C@@H](CC(=O)NCc3ccc(-c4ccccc4)cc3)CC[C@H]21 | 0.161 µM | – | – |
| O=C(Nc1ccc(C(F)(F)F)cc1)Nc1ccc2c(c1)[C@H]1C[C@@H](CC(=O)N3CCc4ccccc4C3)O[C@@H](CO)[C@H]1O2 | 15.8 µM | – | – |
| CN(C)c1ccc2c(c1)[C@@H]1C[C@@H](CC(=O)NC3CCCCC3)O[C@@H](CO)[C@@H]1O2 | – | -7.37% (inactive) | – |
| CN(C)c1ccc2c(c1)[C@@H]1C[C@@H](CC(=O)NCCc3ccccc3)O[C@@H](CO)[C@@H]1O2 | – | -3.65% (inactive) | – |
| Cc1cc(C(=O)Nc2ccc3c(c2)C(=O)N(C)[C@@H]2CC[C@H](CC(=O)NCc4ccc(-c5ccccc5)cc4)O[C@@H]2CO3)no1 | – | – | activity change, negative = inhibition ([2]; at 21 µM (top of the series)): -0.92% (inactive) |
| CNC(=O)C[C@H]1CC[C@@H]2[C@H](COc3ccc(NC(=O)c4cc(C)on4)cc3C(=O)N2C)O1 | – | -1.72% (inactive) | – |

| Compound | AC35 [1] | activity change, negative = inhibition ([2]; at 19.5 µM (top of the series)) | also measured |
| --- | --- | --- | --- |
| CN(C)c1ccc2c(c1)[C@@H]1C[C@@H](CC(=O)NCc3ccccn3)O[C@@H](CO)[C@@H]1O2 | – | -11.4% (inactive) | – |
| CN(C)c1ccc2c(c1)[C@@H]1C[C@@H](CC(=O)NCC3CC3)O[C@@H](CO)[C@@H]1O2 | – | -0.472% (inactive) | – |
| CCCNC(=O)C[C@H]1CC[C@@H]2[C@H](COc3ccc(NC(=O)c4cc(C)on4)cc3C(=O)N2C)O1 | – | -2.12% (inactive) | – |
| COc1ccccc1[C@]1(C)ON(c2ccccc2C(F)(F)F)C1=O | 10.6 µM | – | – |
| Cc1cc(C(=O)Nc2ccc3c(c2)C(=O)N(C)[C@@H]2CC[C@H](CC(=O)NC4CCCC4)O[C@H]2CO3)no1 | 10 µM | – | – |
| CN(C)c1ccc2c(c1)[C@@H]1C[C@@H](CC(=O)NCc3cc(F)ccc3F)O[C@@H](CO)[C@@H]1O2 | 1.41 µM | – | – |
| CN(C)c1ccc2c(c1)[C@@H]1C[C@@H](CC(=O)NCc3cccc(F)c3)O[C@@H](CO)[C@@H]1O2 | – | -9.54% (inactive) | – |
| CS(=O)(=O)Nc1ccc2c(c1)[C@@H]1C[C@@H](CC(=O)NCc3ccc(Oc4ccccc4)cc3)O[C@@H](CO)[C@@H]1O2 | 0.623 µM | – | – |
| COCCNC(=O)C[C@@H]1C[C@H]2c3cc(N(C)C)ccc3O[C@H]2[C@H](CO)O1 | – | -5.65% (inactive) | – |
| COc1ccccc1CNC(=O)C[C@@H]1C[C@H]2c3cc(N(C)C)ccc3O[C@H]2[C@H](CO)O1 | – | -11.3% (inactive) | – |
| O=C(C[C@@H]1C[C@H]2c3cc(NC(=O)C4CCOCC4)ccc3O[C@H]2[C@H](CO)O1)NCc1ccc(Oc2ccccc2)cc1 | 16.4 µM | – | – |
| CCNC(=O)C[C@H]1CC[C@@H]2[C@H](COc3ccc(NC(=O)c4cc(C)on4)cc3C(=O)N2C)O1 | – | -0.229% (inactive) | – |
| O=C(C[C@@H]1C[C@H]2c3cc(NC(=O)NC4CCCC4)ccc3O[C@H]2[C@H](CO)O1)NCc1ccc(Oc2ccccc2)cc1 | 8.04 µM | – | – |
| Cc1cc(C(=O)Nc2ccc3c(c2)C(=O)N(C)[C@@H]2CC[C@H](CC(=O)N[C@@H](C)c4ccccc4)O[C@H]2CO3)no1 | – | – | activity change, negative = inhibition ([2]; at 21 µM (top of the series)): -5.47% (inactive) |
| CN(C)c1ccc2c(c1)[C@@H]1C[C@@H](CC(=O)N3CCOCC3)O[C@@H](CO)[C@@H]1O2 | 1.95 µM | – | – |
| CN(C)c1ccc2c(c1)[C@@H]1C[C@@H](CC(=O)N3CCc4ccccc4C3)O[C@@H](CO)[C@@H]1O2 | – | -1.46% (inactive) | – |
